Key:
[1] = molecular target: Amyloid-beta precursor protein (Homo sapiens) (UniProt P05067); assay: Ratio of curcumin to compound for self-mediated amyloid beta (1 to 42) (unknown origin) aggregation at 25 uM after 48 hrs by thioflavin T fluorescence assay relative to control
[2] = Antioxidant activity assessed as trolox equivalent of AAPH radical scavenging activity at 1 to 10 uM preincubated for 15 mins followed by AAPH challenge measured every min for 80 mins by ORAC-FL assay
[3] = molecular target: Amyloid-beta precursor protein (Homo sapiens) (UniProt P05067); assay: Inhibition of self-mediated amyloid beta (1 to 42) (unknown origin) aggregation at 25 uM after 48 hrs by thioflavin T fluorescence assay relative to control
Acetylcholinesterase = Acetylcholinesterase (Electrophorus electricus, UniProt O42275); assay: Inhibition of electric eel AChE using acetylthiocholine iodide as substrate incubated for 5 mins by Ellman's method
Cholinesterase = Cholinesterase (Equus caballus, UniProt P81908); assay: Inhibition of equine serum BChE using butyrylthiocholine iodide as substrate incubated for 5 mins by Ellman's method
[4] = Selectivity ratio of IC50 for equine serum BChE to IC50 for electric eel AChE
[5] = molecular target: Acetylcholinesterase (Electrophorus electricus) (UniProt O42275); assay: Ratio of donepezil IC50 to compound IC50 for electric eel AChE using acetylthiocholine iodide as substrate incubated for 5 mins by Ellman's method
Acetylcholinesterase (Electrophorus electricus), sequence (O42275 24-633 limits assumed): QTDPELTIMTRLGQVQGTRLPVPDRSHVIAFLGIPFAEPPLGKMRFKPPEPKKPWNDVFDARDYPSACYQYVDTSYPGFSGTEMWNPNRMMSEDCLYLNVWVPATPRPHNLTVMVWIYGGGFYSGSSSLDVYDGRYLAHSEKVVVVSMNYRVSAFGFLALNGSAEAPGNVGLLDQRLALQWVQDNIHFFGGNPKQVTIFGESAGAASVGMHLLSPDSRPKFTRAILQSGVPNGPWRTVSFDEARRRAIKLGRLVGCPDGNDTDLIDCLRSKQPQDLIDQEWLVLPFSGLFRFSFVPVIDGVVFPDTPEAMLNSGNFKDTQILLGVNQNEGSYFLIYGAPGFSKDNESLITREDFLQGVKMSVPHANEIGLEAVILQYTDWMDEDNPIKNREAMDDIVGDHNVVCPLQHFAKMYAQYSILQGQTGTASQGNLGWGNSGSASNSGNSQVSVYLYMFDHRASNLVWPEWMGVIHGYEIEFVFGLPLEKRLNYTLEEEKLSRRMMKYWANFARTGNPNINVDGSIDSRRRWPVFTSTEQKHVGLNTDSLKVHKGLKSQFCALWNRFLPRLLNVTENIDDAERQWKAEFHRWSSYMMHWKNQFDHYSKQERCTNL

Amyloid-beta precursor protein (Homo sapiens), sequence (P05067 whole entry): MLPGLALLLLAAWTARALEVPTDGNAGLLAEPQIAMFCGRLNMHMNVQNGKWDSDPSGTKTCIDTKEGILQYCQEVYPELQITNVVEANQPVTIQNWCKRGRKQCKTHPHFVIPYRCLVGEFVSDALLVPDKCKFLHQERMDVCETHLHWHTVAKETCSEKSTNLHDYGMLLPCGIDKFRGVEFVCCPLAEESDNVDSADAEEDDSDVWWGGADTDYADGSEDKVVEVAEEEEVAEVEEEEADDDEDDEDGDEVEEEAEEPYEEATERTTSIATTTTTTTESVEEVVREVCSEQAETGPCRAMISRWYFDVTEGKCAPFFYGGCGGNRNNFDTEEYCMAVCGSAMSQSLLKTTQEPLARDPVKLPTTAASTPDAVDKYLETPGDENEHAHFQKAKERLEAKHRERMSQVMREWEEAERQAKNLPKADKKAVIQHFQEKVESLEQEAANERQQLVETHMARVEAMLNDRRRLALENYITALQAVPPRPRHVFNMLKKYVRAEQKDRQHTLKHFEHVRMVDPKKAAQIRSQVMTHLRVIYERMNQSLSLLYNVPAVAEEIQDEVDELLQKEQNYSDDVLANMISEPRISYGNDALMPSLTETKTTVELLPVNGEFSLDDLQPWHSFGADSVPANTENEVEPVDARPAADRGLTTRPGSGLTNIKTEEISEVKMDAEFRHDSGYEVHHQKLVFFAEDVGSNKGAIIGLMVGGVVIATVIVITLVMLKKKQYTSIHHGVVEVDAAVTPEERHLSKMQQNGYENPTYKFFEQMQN
Acetylcholinesterase, sequence (O42275 whole entry): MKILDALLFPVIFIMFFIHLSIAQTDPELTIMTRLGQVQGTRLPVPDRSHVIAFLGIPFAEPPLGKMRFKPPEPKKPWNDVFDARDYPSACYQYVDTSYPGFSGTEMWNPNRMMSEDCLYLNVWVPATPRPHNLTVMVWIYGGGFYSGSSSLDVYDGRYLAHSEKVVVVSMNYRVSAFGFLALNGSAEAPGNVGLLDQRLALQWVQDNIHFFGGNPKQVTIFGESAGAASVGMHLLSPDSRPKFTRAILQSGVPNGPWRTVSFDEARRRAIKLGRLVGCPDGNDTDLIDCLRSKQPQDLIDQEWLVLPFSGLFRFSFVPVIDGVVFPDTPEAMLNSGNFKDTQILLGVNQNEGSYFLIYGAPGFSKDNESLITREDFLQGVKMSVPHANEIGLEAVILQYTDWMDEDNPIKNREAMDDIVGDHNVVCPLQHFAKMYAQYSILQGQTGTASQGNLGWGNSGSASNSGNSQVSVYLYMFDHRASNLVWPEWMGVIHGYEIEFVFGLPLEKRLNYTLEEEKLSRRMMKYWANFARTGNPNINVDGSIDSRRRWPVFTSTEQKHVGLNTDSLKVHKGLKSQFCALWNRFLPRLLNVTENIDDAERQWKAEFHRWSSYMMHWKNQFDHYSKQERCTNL
Cholinesterase, sequence (P81908 whole entry): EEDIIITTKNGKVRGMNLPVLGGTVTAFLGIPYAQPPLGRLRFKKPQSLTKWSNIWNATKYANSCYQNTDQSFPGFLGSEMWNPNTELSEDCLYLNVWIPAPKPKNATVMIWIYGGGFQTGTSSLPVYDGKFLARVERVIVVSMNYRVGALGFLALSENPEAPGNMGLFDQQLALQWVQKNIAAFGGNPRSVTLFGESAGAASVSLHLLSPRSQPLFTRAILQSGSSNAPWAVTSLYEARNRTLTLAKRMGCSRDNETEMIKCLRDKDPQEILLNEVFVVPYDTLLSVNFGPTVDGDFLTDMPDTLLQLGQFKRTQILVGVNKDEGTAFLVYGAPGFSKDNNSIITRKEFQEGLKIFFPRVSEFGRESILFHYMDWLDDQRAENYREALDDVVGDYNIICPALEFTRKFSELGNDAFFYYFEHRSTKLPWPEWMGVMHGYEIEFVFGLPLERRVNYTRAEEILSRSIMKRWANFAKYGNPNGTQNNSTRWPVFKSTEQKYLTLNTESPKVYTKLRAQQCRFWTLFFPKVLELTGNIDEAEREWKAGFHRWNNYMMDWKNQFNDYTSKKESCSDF

COc1ccc(CNCCCCN2CCC(Cc3ccccc3)CC2)cc1OC
Ratio [1]: 1.51
Activity [2]: 1.06 equiv
inhibition [3]: 80.7%
IC50 (Acetylcholinesterase): 202 nM
IC50 (Cholinesterase): 49.1 nM
Ratio IC50 [4]: 0.24

COc1ccc(CNCCN2CCC(Cc3ccccc3)CC2)cc1OC
Activity [2]: 0.61 equiv
inhibition [3]: 54.7%
IC50 (Acetylcholinesterase): 182 nM
IC50 (Cholinesterase): 77.7 nM
Ratio IC50 [4]: 0.42

COc1ccc(CNCCCN2CCN(Cc3ccccc3)CC2)cc1OC
Ratio [1]: 1.71
Activity [2]: 1.4 equiv
inhibition [3]: 79.7%
IC50 (Acetylcholinesterase): 112 nM
IC50 (Cholinesterase): 331 nM
Ratio IC50 [4]: 2.94

COc1cc(CNCCCN2CCN(C(c3ccccc3)c3ccccc3)CC2)ccc1O
Activity [2]: 2.68 equiv
inhibition [3]: 54.2%

COc1ccc(CNCCCCN2CCN(Cc3ccccc3)CC2)cc1OC
Activity [2]: 0.61 equiv
inhibition [3]: 67.7%
IC50 (Acetylcholinesterase): 163 nM
IC50 (Cholinesterase): 142 nM
Ratio IC50 [4]: 0.86

COc1cc(CNCCCCN2CCN(Cc3ccccc3)CC2)cc(OC)c1OC
Ratio [1]: 1.71
Activity [2]: 1.24 equiv
inhibition [3]: 80.4%
IC50 (Acetylcholinesterase): 138 nM
IC50 (Cholinesterase): 32.7 nM
Ratio IC50 [4]: 0.23

COc1cc(CNCCCCN2CCC(Cc3ccccc3)CC2)ccc1O
Activity [2]: 4.45 equiv
inhibition [3]: 71.3%
IC50 (Acetylcholinesterase): 11.5 nM
IC50 (Cholinesterase): 3.87 nM
Ratio IC50 [4]: 0.33

COc1cc(CNCCN2CCN(Cc3ccccc3)CC2)cc(OC)c1OC
Activity [2]: 2.77 equiv
inhibition [3]: 75.5%
IC50 (Acetylcholinesterase): 96.5 nM
IC50 (Cholinesterase): 75.1 nM
Ratio IC50 [4]: 0.77

c1ccc(CN2CCN(CCNCc3cccnc3)CC2)cc1
Activity [2]: 1.02 equiv
inhibition [3]: 56.8%
IC50 (Acetylcholinesterase): 140 nM
IC50 (Cholinesterase): 129 nM
Ratio IC50 [4]: 0.92

c1ccc(CC2CCN(CCNCc3cccnc3)CC2)cc1
Ratio [1]: 1.51
Activity [2]: 1.32 equiv
inhibition [3]: 84.4%
IC50 (Acetylcholinesterase): 32.8 nM
IC50 (Cholinesterase): 101 nM
Ratio IC50 [4]: 3.07

COc1cc(CNCCCN2CCC(Cc3ccccc3)CC2)cc(OC)c1OC
Ratio [1]: 1.51
Activity [2]: 1.41 equiv
inhibition [3]: 78.2%
IC50 (Acetylcholinesterase): 8.56 nM
IC50 (Cholinesterase): 23.1 nM
Ratio IC50 [4]: 2.69

c1ccc(CC2CCN(CCCNCc3cccnc3)CC2)cc1
Ratio [1]: 1.51
Ratio IC50 [5]: 22
Activity [2]: 1.18 equiv
inhibition [3]: 88.8%
IC50 (Acetylcholinesterase): 2.13 nM
IC50 (Cholinesterase): 81.7 nM
Ratio IC50 [4]: 38.4

COc1ccc(CNCCN2CCN(Cc3ccccc3)CC2)cc1OC
Ratio [1]: 1.71
Activity [2]: 0.95 equiv
inhibition [3]: 80.7%
IC50 (Acetylcholinesterase): 682 nM
IC50 (Cholinesterase): 274 nM
Ratio IC50 [4]: 0.4

COc1cc(CNCCN2CCN(C(c3ccccc3)c3ccccc3)CC2)cc(OC)c1OC
Activity [2]: 2.38 equiv
inhibition [3]: 68.7%

COc1cc(CNCCN2CCN(C(c3ccccc3)c3ccccc3)CC2)ccc1O
Activity [2]: 2.31 equiv
inhibition [3]: 43.5%

COc1cc(CNCCN2CCC(Cc3ccccc3)CC2)ccc1O
Ratio [1]: 1.51
Activity [2]: 4.04 equiv
inhibition [3]: 84.4%
IC50 (Acetylcholinesterase): 38.3 nM
IC50 (Cholinesterase): 4.2 nM
Ratio IC50 [4]: 0.1

COc1ccc(CNCCCCN2CCN(C(c3ccccc3)c3ccccc3)CC2)cc1OC
Activity [2]: 1.35 equiv
inhibition [3]: 57.8%

COc1ccc(CNCCCN2CCN(C(c3ccccc3)c3ccccc3)CC2)cc1OC
Activity [2]: 2.21 equiv
inhibition [3]: 65.6%

COc1cc(CNCCCN2CCN(Cc3ccccc3)CC2)cc(OC)c1OC
Ratio [1]: 1.71
Activity [2]: 1.31 equiv
inhibition [3]: 79.7%
IC50 (Acetylcholinesterase): 81.8 nM
IC50 (Cholinesterase): 41.5 nM
Ratio IC50 [4]: 0.5

COc1cc(CNCCN2CCC(Cc3ccccc3)CC2)cc(OC)c1OC
Activity [2]: 1.38 equiv
inhibition [3]: 75%
IC50 (Acetylcholinesterase): 35.8 nM
IC50 (Cholinesterase): 53.4 nM
Ratio IC50 [4]: 1.48

c1ccc(CN2CCN(CCCNCc3cccnc3)CC2)cc1
Activity [2]: 0.65 equiv
inhibition [3]: 63%
IC50 (Acetylcholinesterase): 23.1 nM
IC50 (Cholinesterase): 209 nM
Ratio IC50 [4]: 9.03

COc1cc(CNCCCN2CCN(C(c3ccccc3)c3ccccc3)CC2)cc(OC)c1OC
Activity [2]: 2.47 equiv
inhibition [3]: 68.2%

COc1cc(CNCCCCN2CCC(Cc3ccccc3)CC2)cc(OC)c1OC
Ratio [1]: 1.51
Activity [2]: 2.45 equiv
inhibition [3]: 85.4%
IC50 (Acetylcholinesterase): 12.8 nM
IC50 (Cholinesterase): 16.7 nM
Ratio IC50 [4]: 1.3

COc1cc(CNCCCN2CCC(Cc3ccccc3)CC2)ccc1O
Ratio [1]: 1.51
Ratio IC50 [5]: 7
Activity [2]: 3.74 equiv
inhibition [3]: 88%
IC50 (Acetylcholinesterase): 6.83 nM
IC50 (Cholinesterase): 7.61 nM
Ratio IC50 [4]: 1.11

COc1ccc(CNCCN2CCN(C(c3ccccc3)c3ccccc3)CC2)cc1OC
Activity [2]: 1.77 equiv
inhibition [3]: 67.6%

COc1cc(CNCCCN2CCN(Cc3ccccc3)CC2)ccc1O
Activity [2]: 1.99 equiv
inhibition [3]: 67.2%
IC50 (Acetylcholinesterase): 13.5 nM
IC50 (Cholinesterase): 18.8 nM
Ratio IC50 [4]: 1.38

c1ccc(CC2CCN(CCCCNCc3cccnc3)CC2)cc1
Ratio [1]: 1.51
Ratio IC50 [5]: 6
Activity [2]: 1.59 equiv
inhibition [3]: 78.6%
IC50 (Acetylcholinesterase): 7.72 nM
IC50 (Cholinesterase): 34 nM
Ratio IC50 [4]: 4.4

COc1cc(CNCCCCN2CCN(Cc3ccccc3)CC2)ccc1O
Activity [2]: 1.64 equiv
inhibition [3]: 72.4%
IC50 (Acetylcholinesterase): 136 nM
IC50 (Cholinesterase): 13.9 nM
Ratio IC50 [4]: 0.1

c1ccc(CN2CCN(CCCCNCc3cccnc3)CC2)cc1
Activity [2]: 0.64 equiv
inhibition [3]: 69.3%
IC50 (Acetylcholinesterase): 134 nM
IC50 (Cholinesterase): 104 nM
Ratio IC50 [4]: 0.78

COc1cc(CNCCCCN2CCN(C(c3ccccc3)c3ccccc3)CC2)cc(OC)c1OC
Activity [2]: 1.63 equiv
inhibition [3]: 57.3%

COc1ccc(CNCCCN2CCC(Cc3ccccc3)CC2)cc1OC
Ratio [1]: 1.51
Activity [2]: 1.22 equiv
inhibition [3]: 84.4%
IC50 (Acetylcholinesterase): 75.3 nM
IC50 (Cholinesterase): 190 nM
Ratio IC50 [4]: 2.52

COc1cc(CNCCN2CCN(Cc3ccccc3)CC2)ccc1O
Activity [2]: 1.28 equiv
inhibition [3]: 71.9%
IC50 (Acetylcholinesterase): 181 nM
IC50 (Cholinesterase): 18.3 nM
Ratio IC50 [4]: 0.1

From ChEMBL document CHEMBL3396949, “Synthesis, biological evaluation and molecular docking study of novel piperidine and piperazine derivatives as multi-targeted agents to treat Alzheimer's disease” (Bioorg Med Chem, 2015)
